Assays:
[1] = Compound was tested for the pseudo first-order rate constants for the inhibition of the cleavage step (k2) of the hammerhead ribozyme at a concentration of 1 uM
[2] = Compound was tested for the pseudo first-order rate constants for the inhibition of the cleavage step (k2) of the hammerhead ribozyme at a concentration of 10 uM
[3] = Compound was tested for the pseudo first-order rate constants for the inhibition of the cleavage step (k2) of the hammerhead ribozyme at a concentration of 100 uM; not determined at this concentration
[4] = Compound was tested for the pseudo first-order rate constants for the inhibition of the cleavage step (k2) of the hammerhead ribozyme at a concentration of 100 uM; too active and complete inhibition is observed
[5] = Compound was tested for the pseudo first-order rate constants for the inhibition of the cleavage step (k2) of the hammerhead ribozyme at a concentration of 100 uM
[6] = Compound was tested for the pseudo first-order rate constants for the inhibition of the cleavage step (k2) of the hammerhead ribozyme at a concentration of 100 uM; too active and complete inhibition is observed; remark: listed apart in the source
[7] = Compound was tested for the pseudo first-order rate constants for the inhibition of the cleavage step (k2) of the hammerhead ribozyme at a concentration of 1 uM; not determined at this concentration

Row | SMILES | K2 [1] | K2 [2] | K2 [3] | K2 [5] | K2 [7] | K2 [4] | K2 [6]
1 | NCC1O[C@H](O[C@H]2[C@@H](O)[C@H](O[C@H]3[C@H](O)[C@@H](N)C[C@@H](N)[C@@H]3O[C@H]3O[C@H](CN)[C@@H](O)[C@H](O)[C@H]3N)O[C@@H]2CSCCOCCSSCCOCCSC[C@H]2O[C@H](O[C@@H]3[C@@H](O)[C@H](O[C@H]4O[C@H](CN)[C@@H](O)C[C@H]4N)[C@@H](N)C[C@H]3N)[C@H](O)[C@@H](N)[C@@H]2O)[C@H](N)[C@@H](O)[C@@H]1O (stereo partly specified) | 0.046 min⁻¹ | 0.008 min⁻¹ | – | – | – | – | –
2 | NC[C@H]1O[C@H](O[C@H]2[C@H](O)[C@@H](O[C@H]3O[C@H](CSCCOCCSSCCOCCSC[C@H]4O[C@H](O[C@@H]5[C@@H](O)[C@H](O[C@H]6O[C@H](CN)[C@@H](O)C[C@H]6N)[C@@H](N)C[C@H]5N)[C@H](O)[C@@H](N)[C@@H]4O)[C@@H](O)[C@H](N)[C@H]3O)[C@H](N)C[C@@H]2N)[C@H](O)[C@@H](O)[C@@H]1O | – | 0.014 min⁻¹ | – | – | – | Too active and complete inhibition is observed | –
3 | NC[C@@H]1O[C@H](O[C@H]2[C@@H](O)[C@H](O[C@@H]3[C@@H](O)[C@H](N)C[C@H](N)[C@H]3O[C@H]3O[C@H](CN)[C@@H](O)[C@H](O)[C@H]3N)O[C@@H]2CO)[C@H](N)[C@@H](O)[C@@H]1O [FRAMYCETIN] | 0.062 min⁻¹ | 0.018 min⁻¹ | No inhibition | – | – | – | –
4 | NC[C@H]1O[C@H](O[C@H]2[C@H](O)[C@@H](O[C@H]3O[C@H](CO)[C@@H](O)[C@H](N)[C@H]3O)[C@H](N)C[C@@H]2N)[C@H](O)[C@@H](O)[C@@H]1O [KANAMYCIN A] | – | – | – | 0.058 min⁻¹ | – | Too active and complete inhibition is observed | Too active and complete inhibition is observed

The next lines start with results.

Row | K2 [1] | K2 [2] | K2 [3] | K2 [5] | K2 [7] | SMILES | K2 [4] | K2 [6]
5 | 0.041 min⁻¹ | 0.003 min⁻¹ | No inhibition | – | – | NCC1O[C@H](O[C@H]2[C@@H](O)[C@H](O[C@H]3[C@H](O)[C@@H](N)C[C@@H](N)[C@@H]3O[C@H]3O[C@H](CN)[C@@H](O)[C@H](O)[C@H]3N)O[C@@H]2CSCCOCCSSCCOCCSC[C@H]2O[C@@H](O[C@H]3[C@H](O)[C@@H](N)C[C@@H](N)[C@@H]3O[C@H]3O[C@H](CN)[C@@H](O)[C@H](O)[C@H]3N)[C@H](O)[C@@H]2O[C@@H]2OC(CN)[C@H](O)[C@@H](O)[C@@H]2N)[C@H](N)[C@@H](O)[C@@H]1O (stereo partly specified) | – | –
6 | – | 0.017 min⁻¹ | – | – | – | NC[C@H]1O[C@H](O[C@H]2[C@H](O)[C@@H](O[C@H]3O[C@H](CSCCOCCSSCCOCCSC[C@H]4O[C@H](O[C@@H]5[C@@H](O)[C@H](O[C@H]6O[C@H](CN)[C@@H](O)[C@H](O)[C@H]6O)[C@@H](N)C[C@H]5N)[C@H](O)[C@@H](N)[C@@H]4O)[C@@H](O)[C@H](N)[C@H]3O)[C@H](N)C[C@@H]2N)[C@H](O)[C@@H](O)[C@@H]1O | Too active and complete inhibition is observed | –
7 | – | 0.051 min⁻¹ | – | 0.012 min⁻¹ | – | NC[C@H]1OC(O[C@H]2[C@H](O)[C@@H](OC3O[C@H](CO)[C@@H](O)[C@H](N)[C@H]3O)[C@H](N)C[C@@H]2N)[C@H](N)C[C@@H]1O (single isomer, unassigned) [TOBRAMYCIN] | Too active and complete inhibition is observed | –
8 | – | 0.011 min⁻¹ | – | – | No inhibition | NC[C@H]1O[C@H](O[C@H]2[C@H](O)[C@@H](O[C@H]3O[C@H](CSCCOCCSSCCOCCSC[C@H]4O[C@H](O[C@@H]5[C@@H](O)[C@H](O[C@H]6O[C@H](CN)[C@@H](O)C[C@H]6N)[C@@H](N)C[C@H]5N)[C@H](O)[C@@H](N)[C@@H]4O)[C@@H](O)[C@H](N)[C@H]3O)[C@H](N)C[C@@H]2N)[C@H](N)C[C@@H]1O [Tobramycin-Tobramycin] | Too active and complete inhibition is observed | –

— ChEMBL document CHEMBL1130493, “Dimeric aminoglycosides: Design, synthesis and RNA binding” (Bioorg Med Chem Lett, 1997)
